Test results from paper PMC10879537 (Nature Communications, 2024).

Columns and labels:
GX_P2V = test: microbe, parasite or virus in culture; type: cell-based, Guangxi pangolin-CoV (GX_P2V); conditions: for inhibition at 0.39 µM / inhibition at 0.49485 µM / inhibition at 0.78 µM / inhibition at 0.79588 µM / inhibition at 1.09691 µM / inhibition at 1.39794 µM / inhibition at 0.193125 µM / inhibition at 1.69897 µM / inhibition at 0.193 µM / inhibition at 0.495 µM / inhibition at 0.796 µM / inhibition at 1.097 µM / inhibition at 1.398 µM / inhibition at 1.699 µM: Vero C1008, 48 h, read-out: Percentage of Inhibition (%); for EC50: Vero C1008, read-out: EC50 against GX_P2V
Vero E6 cells = test: cells; conditions: Chlorocebus sabaeus, Vero C1008, 48 h, read-out: Cytoxicity (%)
SARS-CoV-2 trVLP = test: microbe, parasite or virus in culture; conditions: Severe acute respiratory syndrome coronavirus 2, read-out: EC50 against SARS-CoV-2 trVLP
[1] = system: SARS-CoV-2 live virus (SARS-CoV-2/WH-09/human/2020/CHN); test: microbe, parasite or virus in culture; type: cell-based; conditions: Severe acute respiratory syndrome coronavirus 2, Vero C1008, read-out: SARS-CoV-2 (Vero E6) EC50

Row | SMILES | inhibition at 0.39 µM (GX_P2V) [%] | inhibition at 0.49485 µM (GX_P2V) [%] | inhibition at 0.78 µM (GX_P2V) [%] | inhibition at 0.79588 µM (GX_P2V) [%] | inhibition at 1.09691 µM (GX_P2V) [%] | cytotoxicity at 0.193125 µM (Vero E6 cells) [%] | inhibition at 0.495 µM (GX_P2V) [%] | inhibition at 0.796 µM (GX_P2V) [%] | inhibition at 1.097 µM (GX_P2V) [%] | inhibition at 1.398 µM (GX_P2V) [%] | inhibition at 1.699 µM (GX_P2V) [%] | EC50 (GX_P2V) [nM] | EC50 (SARS-CoV-2 trVLP) [nM] | also measured
1 | COc1ccc(C[C@H]2c3cc(O)c(OC)cc3CCN2C)cc1O [Compound 12, reticuline] | 81.7 | 27.4 | 60 | 65.7 | 49.6 | – | – | – | – | – | – | – | – | inhibition at 1.39794 µM (GX_P2V): 28.1%
2 | COc1cc2c(cc1O)[C@H](Cc1ccc(O)cc1)N(C)CC2 [(S)-N-Methylcolaurine] | – | – | 15.1 | 91.1 | 52.6 | 6.97 | – | – | – | – | – | – | – | inhibition at 0.193125 µM (GX_P2V): 17.4%; inhibition at 1.69897 µM (GX_P2V): 20.9%; cytotoxicity at 0.78 µM (Vero E6 cells): 47%; cytotoxicity at 1.39794 µM (Vero E6 cells): 2.6%
3 | COc1cc2c(cc1OC)C(Cc1ccc(O)c(Oc3cc4c(cc3OC)CCN(C)C4Cc3ccc(O)cc3)c1)N(C)CC2 (stereo not shown) [Liensinine (34), liensinine] | – | – | 68.4 | – | – | – | 84.2 | 74.4 | 87.3 | 100 | 100 | 700 | 3090 | inhibition at 0.193 µM (GX_P2V): 93.8%
4 | CCC(CC)COC(=O)[C@H](C)N[P@](=O)(OC[C@H]1O[C@@](C#N)(c2ccc3c(N)ncnn23)[C@H](O)[C@@H]1O)Oc1ccccc1 [Remdesivir (30), remdesivir, reference compound] | – | – | – | – | – | – | 41.5 | 90.9 | 99.8 | 100 | 100 | 1640 | 110 | inhibition at 0.193 µM (GX_P2V): 91.6%; EC50 [1]: 2190 nM; cytotoxicity at 0.796 µM (Vero E6 cells): 6.65%; cytotoxicity at 1.097 µM (Vero E6 cells): 10.7%; cytotoxicity at 1.398 µM (Vero E6 cells): 9.43%; cytotoxicity at 1.699 µM (Vero E6 cells): 12.3%
5 | COc1cc2c(cc1O)-c1cc3ccc(OC)c(OC)c3c[n+]1CC2 [Columbamine] | – | – | – | – | 49.9 | – | – | – | – | – | – | – | – | inhibition at 1.39794 µM (GX_P2V): 66.7%; cytotoxicity at 0.79588 µM (Vero E6 cells): 34.5%
6 | COc1cc2c(cc1O)[C@@H](Cc1ccc(O)cc1)N(C)CC2 [(R)-N-Methylcolaurine] | 94.8 | 55.7 | – | 56.1 | – | 9.96 | – | – | – | – | – | – | – | inhibition at 0.193125 µM (GX_P2V): 25.6%; cytotoxicity at 0.39 µM (Vero E6 cells): 22.3%; cytotoxicity at 0.49485 µM (Vero E6 cells): 20.1%; cytotoxicity at 0.78 µM (Vero E6 cells): 13.4%; cytotoxicity at 0.79588 µM (Vero E6 cells): 9.7%; cytotoxicity at 1.39794 µM (Vero E6 cells): 23.2%
7 | COc1cc2c(cc1O)C(Cc1ccc(O)cc1)NCC2 (stereo not shown) [Compound 11, coclaurine] | – | 33.2 | – | – | – | 8.1 | – | – | – | – | – | – | – | inhibition at 1.69897 µM (GX_P2V): 28.7%
8 | COc1ccc2cc1Oc1ccc(cc1)CC1c3cc(c(OC)cc3CCN1C)Oc1c(OC)c(OC)c(O)c3c1C(C2)N(C)CC3 (stereo not shown) [Thalidezine (35), thalidezine] | – | – | – | – | – | – | 53.4 | 99.8 | 100 | 100 | 100 | 2740 | 4370 | –
9 | COc1cc2c(cc1O)[C@@H]1Cc3ccc(OC)c(O)c3CN1CC2 [(S)-Scoulerine] | – | 24.5 | – | – | – | 25 | – | – | – | – | – | – | – | cytotoxicity at 0.39 µM (Vero E6 cells): 27.5%; cytotoxicity at 0.49485 µM (Vero E6 cells): 25.7%; cytotoxicity at 1.09691 µM (Vero E6 cells): 33.9%; cytotoxicity at 1.69897 µM (Vero E6 cells): 34%
10 | COc1ccc2c(c1O)-c1c(O)c(OC)cc3c1[C@H](C2)N(C)CC3 [(S)-corytuberine] | 54.6 | – | 42.8 | – | – | – | – | – | – | – | – | – | – | –
